Entries after “also recorded” stand apart in the source; their conditions may differ. Where two headings read alike, the source gives them in different places.
Assays:
recognition memory = format: in vivo; settings: 48-hour interval
Source text: In this evaluation, donepezil (Aricept) is used as the acetylcholinesterase inhibitor component and 3-(1-naphthylsulfonyl)-5-piperazin-1-yl-1H-indazole (Test Compound A) is used as the 5-HT6 component. Novel object recognition is a single trial non-aversive learning paradigm that utilizes the rodent's natural tendency to explore an unfamiliar object more than a familiar one. The learning phase of the paradigm consists of recording the amount of time a rat explores two identical objects it has never seen before during a 5-minute period. Following a 48-hour interval, during which the animal is returned to its homecage, the animal is placed back into the same environment now containing one of the original objects (familiar) and one never experienced before (novel). Recognition memory is reflected as an increase in time spent exploring the novel object relative to that spent exploring the familiar one. The amount of time each animal spends exploring the two objects during the memory trial is analyzed using a repeated-measures ANOVA. […] All treatments were administered prior to the first trial either orally (Test Compound A) or i.p. (Aricept).

[1] = biological target: T1, human cloned 5-HT6 receptors (Homo sapiens, UniProt P50406); experiment: 5-HT6 binding affinity, [3H]-LSD displacement on membranes of Hela cells
T1 construct: expressed in transfected cells; host or cells: Hela cells (membrane preparation)
Procedure: The affinity of test compounds for the serotonin 5-HT6 receptor is evaluated in the following manner. Cultured Hela cells expressing human cloned 5-HT6 receptors are harvested and centrifuged at low speed (1,000×g) for 10.0 min to remove the culture media. The harvested cells are suspended in half volume of fresh physiological phosphate buffered saline solution and recentrifuged at the same speed. This operation is repeated. The collected cells are then homogenized in ten volumes of 50 mM Tris.HCl (pH 7.4) and 0.5 mM EDTA. The homogenate is centrifuged at 40,000×g for 30.0 min and the precipitate is collected. The obtained pellet is resuspended in 10 volumes of Tris.HCl buffer and recentrifuged at the same speed. The final pellet is suspended in a small volume of Tris.HCl buffer and the tissue protein content is determined in aliquots of 10-25 μl volumes. […] The volume of the suspended cell membranes is adjusted to give a tissue protein concentration of 1.0 mg/ml of suspension. The prepared membrane suspension (10 times concentrated) is aliquoted in 1.0 ml volumes and stored at −70° C. until used in subsequent binding experiments.
Binding experiments are performed in a 96 well microtiter plate format, in a total volume of 200 μl. […] The test compounds are added in 20.0 μl volume.
The bound complex caught on the filter disk is allowed to air dry and the radioactivity is measured in a Packard TopCount® equipped with six photomultiplier detectors, after the addition of 40.0 μl Microscint®-20 scintillant to each shallow well.
Binding in the presence of varying concentrations of test compound is expressed as a percentage of specific binding in the absence of test compound. The results are plotted as log % bound versus log concentration of test compound. […] A linear regression line of data points is plotted, from which the IC50 value is determined and the Ki value is determined based upon the following equation: […]
where L is the concentration of the radioactive ligand used and KD is the dissociation constant of the ligand for the receptor, both expressed in nM.

[2] = biological target: T2, human 5-HT6 receptor stabily transfected into HELA cells (Homo sapiens, UniProt P50406); experiment: 5-HT6 antagonist activity using cAMP accumulation; format: cell-based; settings: decrease of cAMP relative to serotonin (100 nM); 100% Imax indicates 0% intrinsic activity
T2 construct: expressed in transfected cells; host or cells: HELA cells, stably transfected
Procedure: Intracellular cAMP levels are measured using 96-well plates containing the human 5-HT6 receptor stabily transfected into HELA cells. Upon initiation of the assay, the media from cell maintenance is aspirated and cells are preincubated at 37° C. for 15 mins. in KREBS buffer. Following this primary incubation, the buffer is aspirated and an additional incubation is performed at 37° C. for 5 mins. in KREBS buffer containing 500 uM IBMX (3-isobutyl-1-methylxanthine). Subsequently cells are incubated with test compound concentrations ranging from 10^-5 to 10^-10M for 10 minutes at 37° C. Serotonin (100 nM) is added to the treated cells and incubated for an additional 10 minutes at 37° C. The assay is terminated by the addition of 0.5M perchloric acid. Intracellular CAMP levels are determined by radioimmunoassay through the cAMP SPA screening kit. Data are analyzed graphically with GraphPad Prism (GraphPad Software, San Diego, Calif.). […] The value is recorded as Imax (%) and shown on Table I. (100% Imax indicates 0% intrinsic activity.)

[3] = tested on: acetylcholine release in dorsal hippocampus; experiment: Acetylcholine release in rat dorsal hippocampus, microdialysis; format: in vivo, Sprague Dawley rats; settings: rat dorsal hippocampus dialysate
Source text: Male Sprague Dawley rats were anesthetized with halothane and secured in a stereotaxic frame to allow implantation of a microdialysis guide cannula above the dorsal hippocampus (coordinatesXXX; Paxinos & Watson 1986). The guide cannula was secured using dental acrylic and two small skull screws. Following surgery, animals were individually housed in microdialysis cages with free access to food and water. The following day a microdialysis probe was inserted via the guide cannula into the hippocampus. Probes were perfused with artificial cerebrospinal fluid at a flow rate of 0.5 μl/min. Dialysates were collected every 40 min and were put on dry ice immediately after collection for subsequent analysis. A 3 h stabilization period was allowed following probe insertion after which time baseline samples were collected for 120 min. Rats were then dosed with Aricept (0.5 mg/kg i.p.) or vehicle (saline, 1 ml/kg i.p.). […] Following dosing, dialysis samples were collected for 200 min. At the end of the experiment, animals were euthanized and probe placement was verified histologically. Data from animals with incorrect probe placement were discarded. Dialysates were analyzed for ACh content using LC/MS/MS.

[4] = 5-HT6 antagonist 1 mg/kg po alone

T1 sequence (P50406 whole entry): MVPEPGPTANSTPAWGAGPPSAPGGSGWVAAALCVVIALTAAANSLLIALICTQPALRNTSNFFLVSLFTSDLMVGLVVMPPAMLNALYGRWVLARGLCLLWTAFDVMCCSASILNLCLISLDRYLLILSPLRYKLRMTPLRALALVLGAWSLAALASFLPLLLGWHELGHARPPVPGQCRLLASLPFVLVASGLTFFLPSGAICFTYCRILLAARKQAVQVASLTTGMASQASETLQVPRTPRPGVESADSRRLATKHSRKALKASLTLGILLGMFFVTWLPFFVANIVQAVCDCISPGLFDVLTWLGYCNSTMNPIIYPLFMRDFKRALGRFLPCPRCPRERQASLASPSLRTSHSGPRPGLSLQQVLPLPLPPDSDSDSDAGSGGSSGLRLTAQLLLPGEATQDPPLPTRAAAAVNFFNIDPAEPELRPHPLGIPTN
T2 sequence (P50406 whole entry): as above

Compound | Ki [1] [nM] | % Imax [2] [%] | retention for the familiar objects (novel object recognition) (recognition memory; [4]) | further results
COc1ccc2c3c1O[C@H]1C[C@@H](O)C=C[C@@]31CCN(C)C2 [Razadyne, galanthamine] | – | – | – | retention for the familiar objects (novel object recognition) (recognition memory; Razadyne 0. alone): neither Razadyne (0.1 mg/kg, ip) alone nor Test Compound B (1 mg/kg, po) alone enhanced retention
NCCOc1cccc2c(S(=O)(=O)c3cccc4ccccc34)n[nH]c12 [Test Compound C, (2-{[3-(1-naphthylsulfonyl)-1H-indazol-7-yl]oxy}ethyl)amine] | 1.9 | 100 | – | –
O=S(=O)(c1cccc2ccccc12)c1n[nH]c2ccc(N3CCNCC3)cc12 [Test Compound A, 3-(1-naphthylsulfonyl)-5-piperazin-1-yl-1H-indazole] | 1.1 | 100 | neither Aricept (0.5 mg/kg, ip) nor Test Compound A (1 mg/kg, po) alone enhanced retention | retention for the familiar objects (novel object recognition) (recognition memory; 5-HT6 antagonist 3 mg/kg po alone): enhanced retention for the familiar objects
CN(C)CCCOc1ccc2[nH]nc(S(=O)(=O)c3cccc4ccccc34)c2c1 [Test Compound B, N,N-dimethyl-3-{[3-(1-naphthylsulfonyl)-1H-indazol-5-yl]oxy}propan-1-amine] | – | – | neither Aricept (0.5 mg/kg, ip) alone nor Test Compound B (1 mg/kg, po) alone enhanced retention; also recorded: neither Razadyne (0.1 mg/kg, ip) alone nor Test Compound B (1 mg/kg, po) alone enhanced retention | effect on acetylcholine concentration (change from baseline) ([3]; Test Compound B 1 mg/kg p.o. alone): did not affect acetylcholine
COc1cc2c(cc1OC)C(=O)C(CC1CCN(Cc3ccccc3)CC1)C2 (centres unmarked) [Aricept, donepezil] | – | – | – | retention for the familiar objects (novel object recognition) (recognition memory; Aricept 0.5 mg/kg ip alone): neither Aricept (0.5 mg/kg, ip) nor Test Compound A (1 mg/kg, po) alone enhanced retention; also recorded: produced no enhancement of recognition memory; also recorded: neither Aricept (0.5 mg/kg, ip) alone nor Test Compound B (1 mg/kg, po) alone enhanced retention; retention for the familiar objects (novel object recognition) (recognition memory; Aricept alone): enhanced retention for the familiar objects; increase in acetylcholine concentration (change from baseline) ([3]; Aricept 0.5 mg/kg i.p. alone): 50%
O=S(=O)(c1ccccc1)n1ncc2c(N3CCNCC3)cccc21 [Test Compound D, 1-(phenylsulfonyl)-4-(1-piperazinyl)-1H-indazole] | 0.6 | 100 | – | –

From patent publication US20070167431A1, “Method for the treatment of cognitive dysfunction” (Wyeth, priority 2006, published 2007)
